Series [1] concerns the target T1, ERK2 (Homo sapiens, UniProt P28482).
T1 construct: purchased R&D 1230-KS-010
Nature of the series: ERK2 enzyme activity test (ADP-Glo Kinase Assay). As to conditions: chemiluminescence. It is filed as biochemical. As for the experimental part:
The purpose of this experiment is to detect the inhibitory ability of the compounds on the ERK2 enzyme activity and evaluate the activity of the compounds in vitro according to IC50. The ADP-Glo™ Kinase Assay Kit was used in this experiment. Under the action of enzyme, the substrate was phosphorylated and ADP was produced at the same time. The ADP-Glo Reagent was added to remove unreacted ATP in the reaction system. The kinase detection reagent was used to detect the ADP produced by the reaction. In the presence of the compound, the inhibition rate of the compound was calculated by measuring the signal value.
Enzyme and substrate preparation: ERK2 (1230-KS-010, R&D) and substrate (Custom peptides, Gill Biochemical) were prepared to be 0.75 ng/μl and 1500 μM in the buffer (40 mM Tris, 20 mM MgCl2, 0.1 mg/mL BSA, 50 μM DTT). The enzyme solution and substrate solution were then prepared into a mixed solution at a volume ratio of 2:1 for later use. ATP was diluted to 500 μM with the buffer. The compounds were dissolved in DMSO (dimethyl sulfoxide, Shanghai Titan Scientific Co., Ltd.) to prepare a stock solution with an initial concentration of 20 mM, and then Bravo was used to prepare solutions of the compounds. Finally, a 3 μL of a mixed solution of enzyme and substrate, and 1 μL of different concentrations of the compound (the initial concentration is 50 μM, 4-fold dilution) were added to each well of the 384-well plate, and the plate was incubated at 30° C. for 10 minutes, and finally 1 μL of 500 μM ATP solution was added to each well, and the plate was incubated at 30° C. for 2 hours. Then 5 μL of ADP-Glo was added, and the plate was incubated at 30° C. for 40 minutes. Then 10 μL of Kinase detection buffer was added, and the plate was incubated at 30° C. for 40 minutes. The 384-well plate was taken out and placed in a microplate reader (BMG labtech, PHERAstar FS), and the chemiluminescence was measured by the microplate reader.
(§1) The data were processed and analyzed with Microsoft Excel, Graphpad Prism 5.

Series [2] has as its system Colo205 cells. As to the kind of experiment: In vitro proliferation inhibition test on Colo205 tumor cells (CellTiter-Glo). Format: cell-based. The settings on record: Homo sapiens, COLO 205, 72 h; Colo205 cell proliferation, 3 days of culture, CTG. As for the experimental part:
The purpose of this experiment is to test the inhibitory activity of the compounds on the proliferation of Colo205 cells (CCL-222, ATCC) in vitro. The cells were treated with different concentrations of compounds in vitro. After 3 days of culture, the cell proliferation was detected using CTG (CellTiter-Glo® Luminescent Cell Viability Assay, Promega, catalog number: G7573) reagent. The in vitro activity of the compounds was evaluated according to the IC50 value.
In the following, taking the in vitro proliferation inhibition test method of Colo205 cells as an example, the method in the present disclosure for testing the in vitro proliferation inhibitory activity of the compounds of the present disclosure is described. This method is also applicable to, but not limited to, the in vitro proliferation inhibitory activity test on other tumor cells.
Colo205 cells were digested, centrifuged and then resuspended. The single cell suspension was mixed well, and the density of viable cells was adjusted to 5.0×10^4 cells/ml with cell culture medium (RPMI1640+2% FBS), and 95 μl/well was added to a 96-well cell culture plate. Only 100 μl medium was added to the peripheral wells of the 96-well plate. The culture plate was incubated in an incubator for 24 hours (37° C., 5% CO2).
The compound was dissolved in DMSO (dimethyl sulfoxide, Shanghai Titan Scientific Co., Ltd.) and prepared into a stock solution with an initial concentration of 20 mM. The initial concentration of the small molecule compound is 2 mM, and then 4-fold diluted into to 9 points, and the tenth point is DMSO. Another 96-well plate was taken, 90 μl of cell culture medium (RPMI1640+2% FBS) was added to each well, then 10 μl of different concentrations of the test sample was added to each well, the mixture was mixed well, and then 5 μl of different concentrations of the test sample was added to the cell culture plate, and each sample has two duplicate holes. The culture plate was incubated in the incubator for 3 days (37° C., 5% CO2). The 96-well cell culture plate was taken out, 50 μl CTG solution was added to each well, and the plate was incubated for 10 minutes at room temperature. In a microplate reader (BMG labtech, PHERAstar FS), chemiluminescence was measured with the microplate reader.
as §1

Series [3] in a line: Pharmacokinetics assay in mice. The settings on record: mouse, po, C57 mice (female), intragastric, 2 mg/kg, plasma; for Vd/F: read-out: Apparent distribution volume Vz/F; for AUC: read-out: Area under curve AUC; for CL/F: read-out: Clearance CLz/F; for half-life: read-out: Half Life T1/2 (converted); for Cmax: read-out: Plasma Concentration Cmax; for MRT: read-out: Residence Time MRT. Format: in vivo. As for the experimental part:
Mice were used as the test animal. The drug concentration in plasma at different time points was determined by LC/MS/MS method after administration of compound 3-P2, compound 4-P2, compound 9-P2, compound 10-P2, compound 12 and compound 15. The pharmacokinetic behavior of the compounds of the present disclosure in mice was studied, and the pharmacokinetic characteristics were evaluated.
54 of C57 mice (female) were equally divided into 6 groups, which were purchased from Shanghai Jiesijie Laboratory Animal Co., Ltd., with the animal production license number: SOCK (Shanghai) 2013-0006.
A certain amount of compound was weighted, followed by the addition of 5% volume of DMSO and 5% Tween 80 to dissolve it, then followed by the addition of 90% normal saline to prepare a colorless and clear solution of 0.1 mg/mL.
After an overnight fast, C57 mice were intragastrically administered the test compound at an administration dose of 2 mg/kg and an administration volume of 0.2 ml/10 g.
The mice were intragastrically administered the test compounds. 0.1mL of blood was taken before the administration and at 0.25, 0.5, 1.0, 2.0, 4.0, 6.0, 8.0, 11.0, 24.0 hours after the administration. The blood was placed in a heparinized test tube, and centrifuged at 3500 rpm for 10 minutes. The plasma was separated and stored at −20° C.
The content of the test compound in the plasma of mice after […] administration of the test compound at different concentrations was determined: 25 μl of mouse plasma at each time point after the administration was taken, followed by the addition of 50 μl of the internal standard camptothecin solution (100 ng/mL) and 200 μl of acetonitrile. The resulting solution was vortex-mixed for 5 minutes, and centrifuged for 10 minutes (4000 rpm). 4μl of the supernatant was taken from the plasma samples for LC/MS/MS analysis.

Each structure is given as a SMILES string.

T1 sequence (P28482 whole entry): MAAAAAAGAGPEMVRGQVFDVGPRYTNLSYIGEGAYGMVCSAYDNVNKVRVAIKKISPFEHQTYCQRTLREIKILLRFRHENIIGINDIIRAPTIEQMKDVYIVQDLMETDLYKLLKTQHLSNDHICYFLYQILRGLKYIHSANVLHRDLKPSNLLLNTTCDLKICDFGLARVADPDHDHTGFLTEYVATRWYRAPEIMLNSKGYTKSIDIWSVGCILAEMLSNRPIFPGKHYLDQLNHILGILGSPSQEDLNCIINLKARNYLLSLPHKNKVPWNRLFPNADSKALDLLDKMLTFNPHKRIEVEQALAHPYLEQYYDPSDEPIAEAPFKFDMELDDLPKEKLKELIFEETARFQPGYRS

As for `O=C(CN1CCc2sc(-c3nc(NC4CCOCC4)ncc3Cl)cc2C1=O)N[C@H](CO)c1cccc(Cl)c1` [Example 1, (S)-2-(2-(5-Chloro-2-((tetrahydro-2H-pyran-4-yl)amino)pyrimidin-4-yl)-4-oxo-6,7-dihydrothieno[3,2-c]pyridin-5(4H)-yl)-N-(1-(3-chlorophenyl)-2-hydroxyethyl)acetamide], the figures for the IC50 in series [1] and in series [2] were 0.001 µM and 0.008 µM, respectively.
The compound `CC1(C)c2sc(-c3nc(NC4CCOCC4)ncc3Cl)cc2C(=O)N1CC(=O)N[C@H](CO)c1cccc(Cl)c1` [Example 2, (S)-2-(2-(5-Chloro-2-((tetrahydro-2H-pyran-4-yl)amino)pyrimidin-4-yl)-6,6-dimethyl-4-oxo-4,6-dihydro-5H-thieno[2,3-c]pyrrol-5-yl)-N-(1-(3-chlorophenyl)-2-hydroxyethyl)acetamide] had a half-inhibitory concentration (IC50) in series [1] of 0.003 µM.
On the same count and under the same terms, the figure for `Cc1cccc([C@@H](CO)NC(=O)[C@H](C)N2CCc3sc(-c4nc(NC5CCOCC5)ncc4Cl)cc3C2=O)c1` [Example 3-P1, (S)-2-(2-(5-Chloro-2-((tetrahydro-2H-pyran-4-yl)amino)pyrimidin-4-yl)-4-oxo-6,7-dihydrothieno[3,2-c]pyridin-5(4H)-yl)-N-((S)-2-hydroxy-1-(m-methylphenyl)ethyl)propionamide] is 0.203 µM.
`Cc1cccc([C@@H](CO)NC(=O)[C@@H](C)N2CCc3sc(-c4nc(NC5CCOCC5)ncc4Cl)cc3C2=O)c1` [Example 3-P2, (R)-2-(2-(5-Chloro-2-((tetrahydro-2H-pyran-4-yl)amino)pyrimidin-4-yl)-4-oxo-6,7-dihydrothieno[3,2-c]pyridin-5(4H)-yl)-N-((S)-2-hydroxy-1-(m-methylphenyl)ethyl)propionamide] had an IC50 in series [1] of 0.004 µM. The compound also returned an IC50 in series [2] of 0.026 µM. Also, in series [3], the Vd/F was 2.98 L/kg, the area under the curve (AUC) turned out to be 914 ng·h/mL, the CL/F was determined as 36.5 mL/min/kg and the half-life is 0.945 h. Further, in series [3], the Cmax stood at 708 ng/mL and the MRT amounted to 1.16 h.
The compound `C[C@@H](C(=O)N[C@H](CO)c1cccc(Cl)c1)N1CCc2sc(-c3nc(NC4CCOCC4)ncc3Cl)cc2C1=O` [Example 4-P1, (S)-2-(2-(5-Chloro-2-((tetrahydro-2H-pyran-4-yl)amino)pyrimidin-4-yl)-4-oxo-6,7-di hydrothieno[3,2-c]pyridin-5(4H)-yl)-N-((S)-1-(3-chlorophenyl)-2-hydroxyethyl)propionamide] had an IC50 in series [1] of 0.434 µM.
The compound `C[C@H](C(=O)N[C@H](CO)c1cccc(Cl)c1)N1CCc2sc(-c3nc(NC4CCOCC4)ncc3Cl)cc2C1=O` [Example 4-P2] showed an IC50 in series [1] of 0.006 µM. In series [2], this compound had an IC50 of 0.029 µM. Further, in series [3], the Vd/F is 8.09 L/kg, the exposure (AUC) is 364 ng·h/mL, the CL/F came out at 91.5 mL/min/kg and the half-life is 1.02 h. In series [3], the Cmax worked out at 376 ng/mL and the MRT is 1.14 h.
Take `CC(C(=O)N[C@H](CO)c1cccc(Cl)c1)N1C(=O)c2cc(-c3nc(NC4CCOCC4)ncc3Cl)sc2C1(C)C` (stereo partly drawn) [Example 5, 2-(2-(5-Chloro-2-((tetrahydro-2H-pyran-4-yl)amino)pyrimidin-4-yl)-6,6-dimethyl-4-oxo-4,6-dihydro-5H-thieno[2,3-c]pyrrol-5-yl)-N-((S)-1-(3-chlorophenyl)-2-hydroxyethyl)propionamide]: the IC50 in series [1] was found to be 0.022 µM.
On the same count and under the same terms, next, `O=C(CN1CCc2sc(-c3ccnc(NC4CCOCC4)n3)cc2C1=O)N[C@H](CO)c1cccc(Cl)c1` [Example 6, (S)-N-(1-(3-Chlorophenyl)-2-hydroxyethyl)-2-(4-oxo-2-(2-((tetrahydro-2H-pyran-4-yl)amino)pyrimidin-4-yl)-6,7-dihydrothieno[3,2-c]pyridin-5(4H)-yl)acetamide]: 0.029 µM.
Turning to `Cc1cccc([C@@H](CO)NC(=O)CN2CCc3sc(-c4nc(Nc5ccnn5C)ncc4C)cc3C2=O)c1` [Example 7, (S)-N-(2-Hydroxy-1-(m-methylphenyl)ethyl)-2-(2-(5-methyl-2-((1-methyl-1H-pyrazol-5-yl)amino)pyrimidin-4-yl)-4-oxo-6,7-dihydrothieno[3,2-c]pyridin-5(4H)-yl)acetamide], the results for the IC50 in series [1] and in series [2] were 0.003 µM and 0.038 µM, respectively.
As to `COc1cc(F)cc([C@@H](CO)NC(=O)[C@H](C)N2CCc3sc(-c4nc(NC5CCOCC5)ncc4Cl)cc3C2=O)c1` [Example 9-P1, (S)-2-(2-(5-Chloro-2-((tetrahydro-2H-pyran-4-yl)amino)pyrimidin-4-yl)-4-oxo-6,7-dihydrothieno[3,2-c]pyridin-5(4H)-yl)-N-((S)-1-(3-fluoro-5-methoxyphenyl)-2-hydroxyethyl)prop ionamide], it took 0.41 µM to reach half-maximal inhibition in series [1] (IC50).
On to `Cc1cccc([C@@H](CO)NC(=O)[C@@H](C)N2CCc3sc(-c4nc(N[C@@H](C)CO)ncc4Cl)cc3C2=O)c1` [Example 13, (R)-2-(2-(5-Chloro-2-(((S)-1-hydroxypropan-2-yl)amino)pyrimidin-4-yl)-4-oxo-6,7-dihydrothieno[3,2-c]pyridin-5(4H)-yl)-N-((S)-2-hydroxy-1-(m-methylphenyl)ethyl)propionamide], for which the IC50 in series [1] is 0.009 µM; in series [2] it was 0.026 µM.
